Laboratory results reported in US5273991A, “Imidazole-containing compositions and methods of use thereof analogs of distamycin” (Research Corporation Technologies, Inc., priority 1992, dated 1993).

Assays:
calf thymus DNA = assay: UV-dialysis study (covalent retention on DNA); assay type: binding; conditions: 24 h incubation at room temperature; 20-26 hours dialysis; pH 7.1
From the text: The compounds of the present invention are useful as anticancer agents. Although the biological mechanism which results in anticancer activity is not fully understood, the compounds of the subject invention are capable of binding to the minor groove of double-stranded DNA and, unlike distamycin and netropsin, can tolerate GC-containing DNA. Accordingly, the DNA alkylating moiety of the compounds of the present invention can be directed to the minor groove of GC-containing regions of double-stranded DNA. One of ordinary skill in the art can determine the DNA alkylating ability of the compounds of the present invention by art-recognized methods. The formation of an irreversible adduct of DNA and a compound of the present invention is defined herein as a measure of the DNA alkylating ability of the subject compounds. The formation of an irreversible adduct can be determined by art-recognized methods. For example, a solution containing DNA and a compound of the present invention can be exhaustively dialyzed under conditions which allow unbound drug to pass out of the dialysis bag. The percentage of the compound which has been retained in the dialysis bag is considered to be covalently bound to the DNA, and is determined by comparing the UV absorption spectrum of the compound/DNA solution before and after exhaustive dialysis.
0.5 mL of 2A260 calf thymus DNA was diluted to 2 mL with 10 mM sodium phosphate and 0.25 mM EDTA buffer, pH 7.1. Four aliquots (3 μL each) of a 1 mM stock drug solution in distilled water were added to the DNA solution and a UV absorption spectrum (300-320) was recorded after each addition. The drug/DNA solution was incubated for 24 h at room temperature and another UV spectrum was recorded. The drug/DNA solution was then transferred into a dialysis bag and the dialysis bag was suspended in 30 mL of 10 mM sodium phosphate and 0.25 mM EDTA buffer, pH, 7.1, at room temperature. After 20-26 hours, the […] spectrum of 2 mL of the buffer outside the dialysis bag was recorded. The absorbance of the drug peak was converted to concentration by the Beer-Lambert equation, and the data was presented as percent initial concentration. Under these conditions, substantial amounts of Compounds 6 (55±5%), 7 (45±5%), 8 (85±5%) and 10 (100±5%) are retained in the dialysis bag, while only 29±5% of a formamido analog^1 is retained.

poly(dA.dT) = assay: circular dichroism (CD) titration, poly(dA.dT); assay type: binding; conditions: for CD titration result in words: r' up to ~1.0
Method: The DNA binding properties of the present compounds were assessed by circular dichroism (CD) titration experiments. Methods for CD titration can be found, for example, in Zimmer et al. (1986) Prog. Biophys. Molec. Biol 47, 31. The conformation of DNA can be readily determined by CD experiments, and for B-DNA, characteristic positive and negative Cotton effects are observed at 260 and 245 nm, respectively.
The interaction of Compounds 6-10 to a number of DNAs [calf thymus, poly(dA dT) and poly(dG dC)] were analyzed by CD titration studies. All the CD titration experiments were performed using identical procedures, concentrations of DNA, and increments of drug:DNA ratios (or `r`, i.e. moles of drug to moles of DNA base pairs). Therefore, the differences observed in the CD spectra for the titration of each of the compounds to the polydeoxynucleotides may be directly compared to reflect their DNA binding properties.
All experiments were performed with a continuous flow of nitrogen purging the polarimeter. A 1 mm path length jacketed cell was used and all experiments were done at room temperature. Initially, DNA [0.02 μ moles (base pairs), 130 μL] was placed in the cell and the spectrum of the DNA alone was collected. Aliquots of drug were added and the spectra collected. […] The scan parameters were set and standard for all experiments. The spectra were collected from 400 nm to 200 nm. The sensitivity was set at 1 mdeg and the scan speed was set at 20 nm per minute. Three scans were accumulated and automatically averaged by the computer. The λmax and ellipticity (mdeg) for each spectrum were collected from the raw scans and the final plots were smoothed by the noise reduction program on the computer. […] The induced CD band is presumably due to the uv absorption π to π^* transition of the drug in the drug:DNA complex. […] Therefore interaction of these drugs with DNA causes only minor conformational changes in the double helix.

| Compound | retained in the dialysis bag (percent initial concentration) (calf thymus DNA) [%] | induced negative CD band, ellipticity (poly(dA.dT); 310 nm, r'=0.2) [mdeg] | induced positive CD band, ellipticity (poly(dA.dT); 350 nm, r'=0.2) [mdeg] | isobestic point (poly(dA.dT); poly(dA.dT)) [nm] | CD titration result in words (poly(dA.dT)) | negative Cotton effect band, ellipticity (poly(dA.dT); 315 nm, equimolar titration) [mdeg] |
| --- | --- | --- | --- | --- | --- | --- |
| CN(C)CCNC(=O)c1nc(NC(=O)c2nc(NC(=O)c3ccc(N(CCCl)CCCl)cc3)cn2C)cn1C [Compound 6, N-(N',N'-dimethylaminoethyl)-1-methyl-4-{4-[4,4-bis(2-chloroethyl)aminobenzamido]-1-methylimidazole-2-carboxamido}imidazole-2-carboxamide] | 55±5 | 0.4 | 1.8 | 315 |  |  |
| CN(C)CCNC(=O)c1nc(NC(=O)c2nc(NC(=O)c3nc(NC(=O)c4ccc(N(CCCl)CCCl)cc4)cn3C)cn2C)cn1C [Compound 7, N-(N',N'-dimethylaminoethyl)-1-methyl-4-{1-methyl-4-[4-(4,4-bis-(2-chloroethyl)aminobenzamido)-1-methylimidazole-2-carboxamido]imidazole-2-carboxamido}imidazole-2-carboxamide] | 45±5 |  |  |  | minor changes in the CD spectrum |  |
| CN(C)CCNC(=O)c1nc(NC(=O)c2nc(NC(=O)c3nc(NCc4ccc(N(CCCl)CCCl)cc4)cn3C)cn2C)cn1C [Compound 8, N-(N',N'-dimethylaminoethyl)-1-methyl-4-{1-methyl-4-[4-(4,4-bis-(2-chloroethyl)aminobenzylamino)-1-methylimidazole-2-carboxamido]imidazole-2-carboxamido}imidazole-2-carboxamide] | 85±5 |  |  |  | did not produce any changes in the CD spectrum |  |
| CN(C)CCNC(=O)c1nc(NC(=O)c2nc(NC(=O)c3nc(NC(=O)CCCc4ccc(N(CCCl)CCCl)cc4)cn3C)cn2C)cn1C [Compound 10, N-(N',N'-dimethylaminoethyl)-1-methyl-4-{1-methyl-4-[4-(4,4-bis(2-chloroethyl)aminophenyl-1-butanamido)-1-methylimidazole-2-carboxamido]imidazole-2-carboxamido}imidazole-2-carboxamide] | 100±5 |  |  |  |  | -0.8 |
